Assays:
Assay type in all cases: in vivo
[1] = system: Amaranthus retroflexus; experiment: Pre-emergence herbicidal action, AMARE; details: dosage 320 g/ha, scored visually after 3 weeks vs untreated controls
Method in brief: (§1)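 Percent herbicidal activity rated by eye 3 weeks after pre-emergence soil-surface application, compared with untreated pots. Seeds sat under sandy loam; sprays carried 0.2% wetting agent.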

[2] = system: Alopecurus myosuroides; experiment: Pre-emergence herbicidal action, ALOMY; details: dosage 320 g/ha, scored visually after 3 weeks vs untreated controls
Method in brief: as §1

[3] = system: Viola tricolor; experiment: Post-emergence herbicidal action, VIOTR; details: 80 g/ha, Table D
Method in brief: (§2)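 Greenhouse-grown plants were sprayed at the one-leaf stage, 2–3 weeks after sowing. Damage was scored visually after about 3 weeks against untreated controls, as % action (100% = dead, 0% = like control).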

[4] = system: Setaria viridis; experiment: Post-emergence herbicidal action, SETVI; details: 80 g/ha, Table C
Method in brief: as §2

[5] = system: Avena fatua; experiment: Pre-emergence herbicidal action, AVEFA; details: dosage 320 g/ha, scored visually after 3 weeks vs untreated controls
Method in brief: as §1

[6] = system: Pharbitis purpureum; experiment: Post-emergence herbicidal action, PHBPU; details: 80 g/ha, Table D
Method in brief: as §2

[7] = system: Stellaria media; experiment: Post-emergence herbicidal action, STEME; details: 80 g/ha, Table D
Method in brief: as §2

[8] = system: Abutilon theophrasti; experiment: Pre-emergence herbicidal action, ABUTH; details: dosage 320 g/ha, scored visually after 3 weeks vs untreated controls
Method in brief: as §1

[9] = system: Matricaria inodora; experiment: Pre-emergence herbicidal action, MATIN; details: dosage 320 g/ha, scored visually after 3 weeks vs untreated controls
Method in brief: as §1

[10] = system: Alopecurus myosuroides; experiment: Post-emergence herbicidal action, ALOMY; details: 80 g/ha, Table C
Method in brief: as §2

[11] = system: Viola tricolor; experiment: Pre-emergence herbicidal action, VIOTR; details: dosage 320 g/ha, scored visually after 3 weeks vs untreated controls
Method in brief: as §1

[12] = system: Avena fatua; experiment: Post-emergence herbicidal action, AVEFA; details: 80 g/ha, Table C
Method in brief: as §2

[13] = system: Stellaria media; experiment: Pre-emergence herbicidal action, STEME; details: dosage 320 g/ha, scored visually after 3 weeks vs untreated controls
Method in brief: as §1

[14] = system: Abutilon theophrasti; experiment: Post-emergence herbicidal action, ABUTH; details: 80 g/ha, Table D
Method in brief: as §2

[15] = system: ECHCG; experiment: Post-emergence herbicidal action, ECHCG; details: 80 g/ha, Table C
Method in brief: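 Weed and crop plants grown in sandy loam in the greenhouse, treated at the one-leaf stage 2–3 weeks after sowing. Damage scored visually after about 3 weeks vs untreated controls (0% = control, 100% = dead).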

[16] = system: Cyperus serotinus; experiment: Pre-emergence herbicidal action, CYPES; details: dosage 320 g/ha, scored visually after 3 weeks vs untreated controls
Method in brief: as §1

[17] = system: Setaria viridis; experiment: Pre-emergence herbicidal action, SETVI; details: dosage 320 g/ha, scored visually after 3 weeks vs untreated controls
Method in brief: as §1

[18] = system: Amaranthus retroflexus; experiment: Post-emergence herbicidal action, AMARE; details: 80 g/ha, Table D
Method in brief: as §2

| SMILES | herbicidal activity AMARE [1] | herbicidal activity ALOMY [2] | herbicidal activity VIOTR [3] | herbicidal activity SETVI [4] | herbicidal activity AVEFA [5] | Herbicidal activity PHBPU [6] | Herbicidal activity STEME [7] | herbicidal activity ABUTH [8] | herbicidal activity MATIN [9] | herbicidal activity ALOMY [10] | herbicidal activity VIOTR [11] | herbicidal activity AVEFA [12] | Herbicidal activity STEME [13] | herbicidal activity ABUTH [14] | Herbicidal activity ECHCG [15] | herbicidal activity CYPES [16] | herbicidal activity SETVI [17] | herbicidal activity AMARE [18] |
| --- | --- | --- | --- | --- | --- | --- | --- | --- | --- | --- | --- | --- | --- | --- | --- | --- | --- | --- |
| CCn1nnnc1NC(=O)c1ccc(C(F)F)c(S(=O)(=O)CC)c1I [Example 2-78] | 100% | 100% | 90% | 90% | 100% | 90% | 100% | 100% | 100% | 80% | 100% | 90% | 100% | 80% | 90% | 100% | 100% | 100% |
| CCSc1c(C(F)F)ccc(C(=O)Nc2ncnn2C)c1Cl [Example 4-52] | 100% | 100% | 90% | 100% | 100% | 100% | 90% | 100% | 100% | 90% | 100% | 100% | 100% | 90% | 100% | 80% | 100% | 100% |
| CC[S+]([O-])c1c(C(F)F)ccc(C(=O)Nc2ncnn2C)c1Cl (stereo not drawn) [Example 4-53] | 100% | 100% | 100% | 100% | 100% | 90% | 90% | 100% | 100% | 90% | 100% | 100% | 100% | 100% | 90% | 100% | 100% | 100% |
| CCS(=O)(=O)c1c(C(F)F)ccc(C(=O)Nc2ncnn2C)c1Cl [Example 4-54] | 100% | 90% | 100% | 100% | 80% | 100% | 100% | 100% | 100% | 90% | 100% | 100% | 100% | 90% | 100% | 80% | 90% | 90% |

From patent US20230183193A1, “4-DIFLUOROMETHYL BENZOYL AMIDES WITH HERBICIDAL ACTION” (BAYER CROPSCIENCE AKTIENGESELLSCHAFT, priority 2017, published 2023)
